# Reference: patent US11542240B2, “STK19 inhibitors for treatment of cancer” (TRUSTEES OF BOSTON UNIVERSITY, priority 2018, dated 2023)
# Where two headings read alike, the source gives them in different places.
# What was measured:
# Assay in all cases: biochemical
# Assay type in all cases: binding
# [1] = biological target: panel of 468 diverse kinases (Homo sapiens, UniProt O15264); conditions: p38-delta; 1000 nM; read-out: Percent Control
# [2] = biological target: panel of 468 diverse kinases (Homo sapiens, UniProt O60331); conditions: PIP5K1C; 1000 nM; read-out: Percent Control
# [3] = biological target: panel of 468 diverse kinases (Homo sapiens, UniProt P00519, F317I); conditions: 1000 nM, read-out: Percent Control
# [4] = biological target: panel of 468 diverse kinases (Homo sapiens, UniProt P06241); conditions: FYN; 1000 nM; read-out: Percent Control
# Chain of panel of 468 diverse kinases (Homo sapiens, UniProt P06241) (P06241 2-537 limits assumed): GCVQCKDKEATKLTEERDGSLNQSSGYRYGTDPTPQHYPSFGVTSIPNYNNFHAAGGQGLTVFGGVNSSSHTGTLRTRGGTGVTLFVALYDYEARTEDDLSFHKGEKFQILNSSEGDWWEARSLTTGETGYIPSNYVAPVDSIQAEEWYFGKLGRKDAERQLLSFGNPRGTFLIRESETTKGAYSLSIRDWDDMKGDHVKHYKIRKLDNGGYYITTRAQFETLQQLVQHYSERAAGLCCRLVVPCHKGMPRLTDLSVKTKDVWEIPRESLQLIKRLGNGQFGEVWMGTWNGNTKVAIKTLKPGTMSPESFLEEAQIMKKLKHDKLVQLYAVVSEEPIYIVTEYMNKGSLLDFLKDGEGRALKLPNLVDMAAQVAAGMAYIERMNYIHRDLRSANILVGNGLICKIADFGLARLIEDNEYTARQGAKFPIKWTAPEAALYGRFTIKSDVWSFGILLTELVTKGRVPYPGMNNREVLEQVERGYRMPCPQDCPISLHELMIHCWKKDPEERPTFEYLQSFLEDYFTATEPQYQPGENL
# [5] = biological target: panel of 468 diverse kinases (Homo sapiens, UniProt P08631); conditions: HCK; 1000 nM; read-out: Percent Control
# [6] = biological target: panel of 468 diverse kinases (Homo sapiens, UniProt P15056, V600E); conditions: BRAF(V600E); 1000 nM; read-out: Percent Control
# Chain of panel of 468 diverse kinases (Homo sapiens, UniProt P15056, V600E) (P15056 2-766 V600E limits assumed): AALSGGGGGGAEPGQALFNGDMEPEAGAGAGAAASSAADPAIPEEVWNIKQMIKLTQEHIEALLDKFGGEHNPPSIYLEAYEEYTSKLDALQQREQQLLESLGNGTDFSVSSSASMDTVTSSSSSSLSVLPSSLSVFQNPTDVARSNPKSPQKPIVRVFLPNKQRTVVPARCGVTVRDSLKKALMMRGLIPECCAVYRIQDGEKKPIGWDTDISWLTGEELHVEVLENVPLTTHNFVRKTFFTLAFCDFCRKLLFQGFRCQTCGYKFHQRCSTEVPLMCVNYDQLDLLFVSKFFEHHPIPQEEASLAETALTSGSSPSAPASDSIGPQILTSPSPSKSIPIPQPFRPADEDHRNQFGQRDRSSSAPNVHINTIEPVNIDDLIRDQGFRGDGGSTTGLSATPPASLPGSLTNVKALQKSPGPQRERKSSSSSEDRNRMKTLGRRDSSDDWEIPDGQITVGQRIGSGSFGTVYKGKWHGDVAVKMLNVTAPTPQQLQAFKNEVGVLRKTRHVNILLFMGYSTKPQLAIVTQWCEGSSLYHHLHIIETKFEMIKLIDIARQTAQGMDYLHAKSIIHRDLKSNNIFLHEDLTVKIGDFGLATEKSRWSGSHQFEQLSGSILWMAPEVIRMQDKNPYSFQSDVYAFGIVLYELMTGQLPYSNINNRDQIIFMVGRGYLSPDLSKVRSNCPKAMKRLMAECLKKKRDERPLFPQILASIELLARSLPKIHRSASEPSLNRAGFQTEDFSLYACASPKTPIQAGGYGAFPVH
# [7] = biological target: panel of 468 diverse kinases (Homo sapiens, UniProt P21860); conditions: ERBB3; 1000 nM; read-out: Percent Control
# Chain of panel of 468 diverse kinases (Homo sapiens, UniProt P21860) (P21860 20-1342 limits assumed): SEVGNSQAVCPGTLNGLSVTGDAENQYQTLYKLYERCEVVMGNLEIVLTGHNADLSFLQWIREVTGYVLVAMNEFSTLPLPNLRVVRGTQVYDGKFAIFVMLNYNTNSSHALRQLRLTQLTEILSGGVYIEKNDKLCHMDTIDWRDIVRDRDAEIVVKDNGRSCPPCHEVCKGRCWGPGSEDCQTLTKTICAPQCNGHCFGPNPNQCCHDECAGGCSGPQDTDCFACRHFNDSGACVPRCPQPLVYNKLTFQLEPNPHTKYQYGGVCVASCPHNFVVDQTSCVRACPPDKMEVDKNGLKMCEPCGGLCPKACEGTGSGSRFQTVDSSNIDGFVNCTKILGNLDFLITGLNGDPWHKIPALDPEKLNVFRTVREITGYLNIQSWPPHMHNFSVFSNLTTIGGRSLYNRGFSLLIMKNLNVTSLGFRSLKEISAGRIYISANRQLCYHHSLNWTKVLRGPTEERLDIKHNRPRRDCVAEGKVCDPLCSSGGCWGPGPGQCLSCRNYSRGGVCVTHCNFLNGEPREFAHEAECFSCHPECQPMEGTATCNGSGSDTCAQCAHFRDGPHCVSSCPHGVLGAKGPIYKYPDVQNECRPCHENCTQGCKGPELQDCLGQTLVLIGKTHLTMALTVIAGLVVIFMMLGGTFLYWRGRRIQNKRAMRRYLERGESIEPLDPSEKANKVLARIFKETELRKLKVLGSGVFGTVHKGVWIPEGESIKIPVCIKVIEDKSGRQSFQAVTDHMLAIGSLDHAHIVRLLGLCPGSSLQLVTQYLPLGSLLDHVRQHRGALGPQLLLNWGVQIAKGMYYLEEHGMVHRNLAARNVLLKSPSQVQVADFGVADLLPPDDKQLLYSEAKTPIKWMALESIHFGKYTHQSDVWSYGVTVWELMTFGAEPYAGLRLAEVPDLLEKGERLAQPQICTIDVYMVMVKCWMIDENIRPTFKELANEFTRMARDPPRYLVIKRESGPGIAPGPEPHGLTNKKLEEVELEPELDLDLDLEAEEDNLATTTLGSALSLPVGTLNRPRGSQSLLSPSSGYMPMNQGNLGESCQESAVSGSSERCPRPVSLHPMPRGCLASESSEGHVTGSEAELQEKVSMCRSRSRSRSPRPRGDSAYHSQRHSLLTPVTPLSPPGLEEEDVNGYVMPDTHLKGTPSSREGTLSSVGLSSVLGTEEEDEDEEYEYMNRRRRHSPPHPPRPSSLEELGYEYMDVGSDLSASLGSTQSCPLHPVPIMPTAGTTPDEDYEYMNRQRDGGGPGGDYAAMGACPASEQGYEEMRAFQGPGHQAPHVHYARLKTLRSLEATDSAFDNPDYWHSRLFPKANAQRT
# [8] = biological target: panel of 468 diverse kinases (Homo sapiens, UniProt P22607); conditions: FGFR3; 1000 nM; read-out: Percent Control
# Chain of panel of 468 diverse kinases (Homo sapiens, UniProt P22607) (P22607 23-806 limits assumed): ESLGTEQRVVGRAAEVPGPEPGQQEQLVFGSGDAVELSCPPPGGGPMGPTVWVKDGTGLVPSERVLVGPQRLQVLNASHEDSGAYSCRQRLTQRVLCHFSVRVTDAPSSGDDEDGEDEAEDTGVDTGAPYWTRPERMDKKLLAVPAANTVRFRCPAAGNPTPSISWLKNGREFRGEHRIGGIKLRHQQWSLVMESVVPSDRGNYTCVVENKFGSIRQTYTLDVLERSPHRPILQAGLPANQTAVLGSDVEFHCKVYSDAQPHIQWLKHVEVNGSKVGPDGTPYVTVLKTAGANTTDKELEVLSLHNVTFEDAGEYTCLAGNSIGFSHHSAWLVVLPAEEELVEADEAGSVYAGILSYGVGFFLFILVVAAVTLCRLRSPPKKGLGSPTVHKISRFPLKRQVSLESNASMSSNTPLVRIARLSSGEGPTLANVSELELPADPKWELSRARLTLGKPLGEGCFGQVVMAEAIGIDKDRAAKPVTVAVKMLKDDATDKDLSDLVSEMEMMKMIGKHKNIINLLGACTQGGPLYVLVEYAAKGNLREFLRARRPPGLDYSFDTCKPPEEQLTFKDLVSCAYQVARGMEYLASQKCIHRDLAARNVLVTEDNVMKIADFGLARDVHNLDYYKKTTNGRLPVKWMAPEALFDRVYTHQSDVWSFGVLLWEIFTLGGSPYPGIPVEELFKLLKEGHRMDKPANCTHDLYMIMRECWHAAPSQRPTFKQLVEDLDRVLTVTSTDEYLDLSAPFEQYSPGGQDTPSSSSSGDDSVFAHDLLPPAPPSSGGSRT
# [9] = biological target: panel of 468 diverse kinases (Homo sapiens, UniProt P23458); conditions: 1000 nM, read-out: Percent Control
# [10] = biological target: panel of 468 diverse kinases (Homo sapiens, UniProt P31749); conditions: AKT1; 1000 nM; read-out: Percent Control
# [11] = biological target: panel of 468 diverse kinases (Homo sapiens, UniProt P35590); conditions: TIE1; 1000 nM; read-out: Percent Control
# [12] = biological target: panel of 468 diverse kinases (Homo sapiens, UniProt P36888, N841I); conditions: FLT3(N841I); 1000 nM; read-out: Percent Control
# [13] = biological target: panel of 468 diverse kinases (Homo sapiens, UniProt P45985); conditions: MEK4; 1000 nM; read-out: Percent Control
# [14] = biological target: panel of 468 diverse kinases (Homo sapiens, UniProt P49840); conditions: GSK3A; 1000 nM; read-out: Percent Control
# Chain of panel of 468 diverse kinases (Homo sapiens, UniProt P49840) (P49840 2-483 limits assumed): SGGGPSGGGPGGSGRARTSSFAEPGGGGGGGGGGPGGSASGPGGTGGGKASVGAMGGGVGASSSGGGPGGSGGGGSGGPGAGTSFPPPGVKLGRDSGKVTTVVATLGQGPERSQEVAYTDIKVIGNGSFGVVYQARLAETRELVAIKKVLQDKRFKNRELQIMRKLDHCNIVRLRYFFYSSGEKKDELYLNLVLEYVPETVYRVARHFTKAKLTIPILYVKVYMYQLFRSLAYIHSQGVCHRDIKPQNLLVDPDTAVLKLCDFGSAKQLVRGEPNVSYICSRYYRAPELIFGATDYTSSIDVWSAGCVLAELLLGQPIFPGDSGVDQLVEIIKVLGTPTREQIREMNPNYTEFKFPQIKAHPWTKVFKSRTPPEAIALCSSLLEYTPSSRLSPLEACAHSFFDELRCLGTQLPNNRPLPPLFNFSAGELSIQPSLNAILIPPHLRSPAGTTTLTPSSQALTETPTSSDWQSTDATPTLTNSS
# [15] = biological target: panel of 468 diverse kinases (Homo sapiens, UniProt P53779); conditions: JNK3; 1000 nM; read-out: Percent Control
# [16] = biological target: panel of 468 diverse kinases (Homo sapiens, UniProt P78368); conditions: CSNK1G2; 1000 nM; read-out: Percent Control
# [17] = biological target: panel of 468 diverse kinases (Homo sapiens, UniProt Q00532); conditions: CDKL1; 1000 nM; read-out: Percent Control
# [18] = biological target: panel of 468 diverse kinases (Homo sapiens, UniProt Q05655); conditions: PRKCD; 1000 nM; read-out: Percent Control
# [19] = biological target: panel of 468 diverse kinases (Homo sapiens, UniProt Q07002); conditions: PCTK3; 1000 nM; read-out: Percent Control
# [20] = biological target: panel of 468 diverse kinases (Homo sapiens, UniProt Q13237); conditions: PRKG2; 1000 nM; read-out: Percent Control
# [21] = biological target: panel of 468 diverse kinases (Homo sapiens, UniProt Q7L7X3); conditions: TAOK1; 1000 nM; read-out: Percent Control
# [22] = biological target: panel of 468 diverse kinases (Homo sapiens, UniProt Q86V86); conditions: PIM3; 1000 nM; read-out: Percent Control
# [23] = biological target: panel of 468 diverse kinases (Homo sapiens, UniProt Q8NEB9); conditions: VPS34; 1000 nM; read-out: Percent Control
# [24] = biological target: panel of 468 diverse kinases (Homo sapiens, UniProt Q8NEV4); conditions: MYO3A; 1000 nM; read-out: Percent Control
# [25] = biological target: panel of 468 diverse kinases (Homo sapiens, UniProt Q8NFD2); conditions: ANKK1; 1000 nM; read-out: Percent Control
# [26] = biological target: panel of 468 diverse kinases (Homo sapiens, UniProt Q9BRS2); conditions: RIOK1; 1000 nM; read-out: Percent Control
# [27] = biological target: panel of 468 diverse kinases (Homo sapiens, UniProt Q9H2G2); conditions: SLK; 1000 nM; read-out: Percent Control
# [28] = biological target: panel of 468 diverse kinases (Homo sapiens, UniProt Q9H4B4); conditions: PLK3; 1000 nM; read-out: Percent Control
# [29] = biological target: panel of 468 diverse kinases (Homo sapiens, UniProt Q9HC98); conditions: NEK6; 1000 nM; read-out: Percent Control
# [30] = biological target: panel of 468 diverse kinases (Homo sapiens, UniProt Q9NYL2); conditions: ZAK; 1000 nM; read-out: Percent Control
# Chain of panel of 468 diverse kinases (Homo sapiens, UniProt Q9NYL2) (Q9NYL2 2-800 limits assumed): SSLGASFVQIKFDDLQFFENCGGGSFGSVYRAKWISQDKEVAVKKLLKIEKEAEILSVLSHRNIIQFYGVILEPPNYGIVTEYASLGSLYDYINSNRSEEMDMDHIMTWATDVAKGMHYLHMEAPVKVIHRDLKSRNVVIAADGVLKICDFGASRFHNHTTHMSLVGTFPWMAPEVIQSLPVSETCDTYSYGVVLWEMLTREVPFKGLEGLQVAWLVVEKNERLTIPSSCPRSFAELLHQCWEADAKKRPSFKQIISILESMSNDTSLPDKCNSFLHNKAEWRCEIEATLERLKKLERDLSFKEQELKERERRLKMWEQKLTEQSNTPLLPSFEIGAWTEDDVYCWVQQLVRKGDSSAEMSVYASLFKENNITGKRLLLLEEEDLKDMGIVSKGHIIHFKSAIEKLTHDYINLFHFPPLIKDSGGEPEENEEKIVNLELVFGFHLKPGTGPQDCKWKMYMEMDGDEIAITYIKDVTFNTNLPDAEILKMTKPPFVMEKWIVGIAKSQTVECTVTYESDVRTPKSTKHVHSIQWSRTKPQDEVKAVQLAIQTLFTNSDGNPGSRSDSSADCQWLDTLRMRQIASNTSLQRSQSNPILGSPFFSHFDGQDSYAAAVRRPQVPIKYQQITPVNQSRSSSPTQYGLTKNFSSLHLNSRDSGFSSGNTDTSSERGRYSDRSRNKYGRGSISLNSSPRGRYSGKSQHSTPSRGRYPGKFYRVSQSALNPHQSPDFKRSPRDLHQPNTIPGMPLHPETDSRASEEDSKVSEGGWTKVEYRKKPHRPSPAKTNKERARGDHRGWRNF
# [31] = biological target: panel of 468 diverse kinases (Homo sapiens, UniProt Q9Y2H9); conditions: MAST1; 1000 nM; read-out: Percent Control
structure (smiles),measurement,setting,value
COc1cc2nc(NC3CC3)nc(NC3CCN(C(C)C)CC3)c2cc1OC [Formula IV],remaining activity at 1 µM,[1],98%
same,remaining activity at 1 µM,[2],100%
same,remaining activity at 1 µM,[3]; ABL1(F317I)-nonphosphorylated,85%
same,remaining activity at 1 µM,[3]; ABL1(F317I)-pho sphorylated,90%
same,remaining activity at 1 µM,[4],100%
same,remaining activity at 1 µM,[5],95%
same,remaining activity at 1 µM,[6],89%
same,remaining activity at 1 µM,[7],100%
same,remaining activity at 1 µM,[8],100%
same,remaining activity at 1 µM,[9]; JAK1(JH1domain-catalytic),96%
same,remaining activity at 1 µM,[9]; JAK1(JH2domain-pseudokinase),51%
same,remaining activity at 1 µM,[10],95%
same,remaining activity at 1 µM,[11],97%
same,remaining activity at 1 µM,[12],63%
same,remaining activity at 1 µM,[13],84%
same,remaining activity at 1 µM,[14],95%
same,remaining activity at 1 µM,[15],100%
same,remaining activity at 1 µM,[16],86%
same,remaining activity at 1 µM,[17],53%
same,remaining activity at 1 µM,[18],97%
same,remaining activity at 1 µM,[19],86%
same,remaining activity at 1 µM,[20],88%
same,remaining activity at 1 µM,[21],100%
same,remaining activity at 1 µM,[22],85%
same,remaining activity at 1 µM,[23],51%
same,remaining activity at 1 µM,[24],100%
same,remaining activity at 1 µM,[25],50%
same,remaining activity at 1 µM,[26],100%
same,remaining activity at 1 µM,[27],100%
same,remaining activity at 1 µM,[28],68%
same,remaining activity at 1 µM,[29],83%
same,remaining activity at 1 µM,[30],100%
same,remaining activity at 1 µM,[31],72%
